“And” between values parts separate entries of the source, which are not always exact repeats. Identical values can stand only once.
Tests used:
Type in all cases: in vivo
Avena fatua [1] = assay: greenhouse post-emergence treatment, AVEFA; details: AVEFA
Outline: (§1)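 Scoring ran on a 0-100 scale, 100 meaning no emergence or destroyed above-ground parts, over a 2-4 week period; Colby formula E=X+Y−(X·Y/100) gave expected mixture effects. Species grew separately in loamy sand (about 3.0% humus) at 10-25° C or 20-35° C, with water as solvent.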

Setaria viridis = assay: greenhouse post-emergence treatment, SETVI; details: SETVI
Outline: as §1

Polygonum convolvulus = assay: greenhouse post-emergence treatment, POLCO; details: POLCO, solo Ex. 5 62.5 gai/ha
Outline: (§2)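 Scale 0–100 damage rating (100 = complete destruction of above-ground parts, 0 = normal growth), read 2 to 4 weeks after post-emergence application of aqueous spray liquor to plants 3–15 cm tall.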

Brachiaria decumbens = assay: greenhouse post-emergence treatment, BRADC; details: BRADC
Outline: as §2

Ambrosia elatior = assay: greenhouse post-emergence treatment, AMBEL; details: 20 DAT, AMBEL
Outline: as §2

Matricaria chamomilla = assay: greenhouse post-emergence treatment, MATCH; details: MATCH
Outline: as §2

Poa annua = assay: greenhouse post-emergence treatment, POAAN; details: POAAN
Outline: as §2

Avena fatua [2] = assay: greenhouse pre-emergence treatment, AVEFA; details: AVEFA
Outline: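 Damage rated on 0 to 100 scale (0 = normal growth, 100 = no emergence or total above-ground kill) after 2-4 weeks at species-dependent 10-25° C or 20-35° C. Seeds sown per species in loamy sand, ~3.0% humus, treated right after sowing with aqueous spray of single actives or 10% emulsion-concentrate mixtures, then hooded; additive expectation by Colby.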

[3] = Ex. 5 solo, 62.5 gai/ha, 20 DAT
[4] = Table X8, 20 DAT, solo Ex. 5 125 gai/ha
[5] = Table X8, 20 DAT, solo Ex. 5 250 gai/ha

O=C(O)c1nc(C2CC2)ncc1-c1ccccc1Cl [Ex. 5]
% activity (Avena fatua [1]; Table X12, 20 DAT, solo Ex. 5 250 gai/ha): 90%
% activity (Avena fatua [1]; solo, 62.5 gai/ha, 20 DAT): 70% and 55%
% activity (Avena fatua [1]; solo, 125 gai/ha, 20 DAT): 75% and 80% and 60%
% activity (Avena fatua [1]; solo, 250 gai/ha, 20 DAT): 80%
% activity, solo application (Setaria viridis; 62.5 gai/ha, 20 DAT, Table X3): 35%
% activity, solo application (Setaria viridis; 250 gai/ha, 20 DAT, Table X3): 60%
% activity, solo application (Setaria viridis; 250 gai/ha, 20 DAT, Table X4): 50%
% activity, solo application (Setaria viridis; 250 gai/ha, 20 DAT, Table X7): 60%
% activity (Setaria viridis; [3]): 55%
% activity (Setaria viridis; 20 DAT, solo Ex. 5 62.5 gai/ha): 30%
% activity (Setaria viridis; 20 DAT, solo Ex. 5 125 gai/ha): 40%
% activity (Setaria viridis; 21 DAT, solo Ex. 5 125 gai/ha): 70%
% activity (Setaria viridis; solo Ex. 5 62.5 gai/ha, 20 DAT): 35% and 30% and 48%
% activity (Setaria viridis; solo Ex. 5 62.5 gai/ha, 21 DAT): 35%
% activity (Setaria viridis; solo Ex. 5 250 gai/ha, 20 DAT): 65%
% activity (Setaria viridis; [4]): 30%
% activity (Setaria viridis; [5]): 30%
% activity (Setaria viridis; solo, 62.5 gai/ha, 20 DAT): 20% and 35%
% activity (Setaria viridis; solo, 125 gai/ha, 20 DAT): 40%
% activity (Setaria viridis; solo, 250 gai/ha, 20 DAT): 50%
% activity (Polygonum convolvulus; 20 DAT): 60%
% activity (Polygonum convolvulus; 21 DAT): 90%
% activity, solo application (Brachiaria decumbens; 125 gai/ha, 20 DAT, Table X5): 50%
% activity, solo application (Brachiaria decumbens; 125 gai/ha, 20 DAT, Table X7): 65%
% activity, solo application (Brachiaria decumbens; 250 gai/ha, 20 DAT, Table X3): 60%
% activity (Brachiaria decumbens; 20 DAT, solo Ex. 5 62.5 gai/ha): 35%
% activity (Brachiaria decumbens; 20 DAT, solo Ex. 5 125 gai/ha): 40%
% activity (Brachiaria decumbens; 20 DAT, solo Ex. 5 125 gai/ha (Table X66)): 40%
% activity (Brachiaria decumbens; 20 DAT, solo Ex. 5 250 gai/ha): 60%
% activity (Brachiaria decumbens; 21 DAT, solo Ex. 5 125 gai/ha): 60%
% activity (Brachiaria decumbens; 21 DAT, solo Ex. 5 250 gai/ha): 70%
% activity (Brachiaria decumbens; solo Ex. 5 62.5 gai/ha, 20 DAT): 30% and 45%
% activity (Brachiaria decumbens; solo Ex. 5 125 gai/ha, 20 DAT): 50%
% activity (Brachiaria decumbens; solo Ex. 5 250 gai/ha, 20 DAT): 60%
% activity (Brachiaria decumbens; solo, 62.5 gai/ha, 20 DAT): 45%
% activity (Brachiaria decumbens; solo, 250 gai/ha, 20 DAT): 60%
% activity, solo application (Ambrosia elatior; 125 gai/ha, Table X5): 80%
% activity (Ambrosia elatior; solo Ex. 5 62.5 gai/ha): 80%
% activity (Ambrosia elatior; solo Ex. 5 125 gai/ha): 80%
% activity (Ambrosia elatior; solo, 62.5 gai/ha): 85%
% activity, solo application (Matricaria chamomilla; 62.5 gai/ha, 20 DAT, Table X3): 30%
% activity, solo application (Matricaria chamomilla; 125 gai/ha, 20 DAT, Table X3): 30%
% activity, solo application (Matricaria chamomilla; 125 gai/ha, 20 DAT, Table X4): 40%
% activity, solo application (Matricaria chamomilla; 125 gai/ha, 20 DAT, Table X5): 10%
% activity, solo application (Matricaria chamomilla; 125 gai/ha, 20 DAT, Table X7): 30%
% activity, solo application (Matricaria chamomilla; 250 gai/ha, 20 DAT, Table X3): 70%
% activity, solo application (Matricaria chamomilla; 250 gai/ha, 20 DAT, Table X4): 40%
% activity, solo application (Matricaria chamomilla; 250 gai/ha, 20 DAT, Table X5): 10%
% activity (Matricaria chamomilla; [3]): 40%
% activity (Matricaria chamomilla; Ex. 5 solo, 62.5 gai/ha, 21 DAT): 30%
% activity (Matricaria chamomilla; Ex. 5 solo, 125 gai/ha, 21 DAT): 30%
% activity (Matricaria chamomilla; Ex. 5 solo, 250 gai/ha, 21 DAT): 60%
% activity (Matricaria chamomilla; 20 DAT, solo Ex. 5 125 gai/ha): 40%
% activity (Matricaria chamomilla; 20 DAT, solo Ex. 5 250 gai/ha): 30%
% activity (Matricaria chamomilla; 20 DAT, solo Ex. 5 250 gai/ha (Table X66)): 30%
% activity (Matricaria chamomilla; 21 DAT, solo Ex. 5 125 gai/ha): 30%
% activity (Matricaria chamomilla; solo Ex. 5 62.5 gai/ha, 20 DAT): 10% and 0%
% activity (Matricaria chamomilla; solo Ex. 5 250 gai/ha, 21 DAT): 30%
% activity (Matricaria chamomilla; solo, 62.5 gai/ha, 20 DAT): 20%
% activity (Matricaria chamomilla; solo, 125 gai/ha, 20 DAT): 40% and 20%
% activity (Matricaria chamomilla; solo, 250 gai/ha, 20 DAT): 40% and 45%
% activity (Poa annua; solo Ex. 5 62.5 gai/ha, 20 DAT): 80%
% activity (Poa annua; solo Ex. 5 125 gai/ha, 20 DAT): 80%
% activity (Poa annua; solo Ex. 5 125 gai/ha, 21 DAT): 85%
% activity (Poa annua; solo Ex. 5 250 gai/ha, 21 DAT): 85%
% activity (Poa annua; [4]): 90%
% activity (Poa annua; [5]): 90%
% activity (Poa annua; solo, 62.5 gai/ha, 20 DAT): 85%
% activity (Poa annua; solo, 125 gai/ha, 20 DAT): 85%
% activity (Poa annua; solo, 250 gai/ha, 20 DAT): 85%
% activity, solo application (Avena fatua [2]; 250 gai/ha, 20 DAT, Table X1): 90%
% activity (Avena fatua [2]; 20 DAT, solo Ex. 5 62.5 gai/ha): 75%
% activity (Avena fatua [2]; solo Ex. 5 125 gai/ha, 20 DAT): 90%
% activity (Avena fatua [2]; [3]): 75%
% activity (Avena fatua [2]; Ex. 5 solo, 125 gai/ha, 20 DAT): 90%
% activity (Avena fatua [2]; Table X9, 21 DAT, solo Ex. 5 250 gai/ha): 90%
% activity (Avena fatua [2]; Table X13, 20 DAT, solo Ex. 5 31.25 gai/ha): 65%
% activity (Avena fatua [2]; Table X13, 20 DAT, solo Ex. 5 62.5 gai/ha): 80%
% activity (Avena fatua [2]; Table X13, 20 DAT, solo Ex. 5 125 gai/ha): 85%
